Test results as given in patent publication US12370192B2, “Azole-fused pyridazin-3(2H)-one derivatives” (TAKEDA PHARMACEUTICAL COMPANY LIMITED, priority 2019, dated 2025).

Target: T1, human GPR139 receptor (Homo sapiens, UniProt Q6DWJ6)
T1 construct: expressed in transfected cells; host or cells: T-REx-CHO (Thermo Fisher Scientific), doxycycline-induced
T1 sequence (Q6DWJ6 1-353): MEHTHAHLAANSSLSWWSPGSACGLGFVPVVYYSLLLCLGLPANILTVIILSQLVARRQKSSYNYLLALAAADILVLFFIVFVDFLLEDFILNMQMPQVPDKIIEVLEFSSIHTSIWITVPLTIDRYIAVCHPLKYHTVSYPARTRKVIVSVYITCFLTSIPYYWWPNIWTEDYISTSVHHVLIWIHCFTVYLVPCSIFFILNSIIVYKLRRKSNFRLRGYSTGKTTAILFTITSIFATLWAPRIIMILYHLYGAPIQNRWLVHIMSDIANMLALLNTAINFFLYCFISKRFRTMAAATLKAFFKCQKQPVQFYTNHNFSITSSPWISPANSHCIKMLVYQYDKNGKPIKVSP
Experiment: Measurement of GPR139 Activation Via Calcium Signaling (FLIPR, T-REx-CHO cells)
Format: cell-based
Conditions: T-REx-CHO cells stably expressing human GPR139, 11-point dose response, 10 μM maximum concentration, read-out: GPR139 Potency (pEC50) (converted)
Procedure: Measurement of GPR139 Activation Via Calcium Signaling
This cell-based assay measures the ability of compounds to activate GPR139 in stably transfected T-REx™-CHO cells. T-REx™-CHO cells (Thermo Fisher Scientific®) are stably expressed with human GPR139 receptor, whose expression is controlled by a tetracycline-inducible element. The cells are cultured in medium containing F-12K nutrient mixture-Kaighn's modification, TripleLE™ Express (1×)-phenol red, Dulbecco's phosphate-buffered saline (1×), 10% tetracycline-free FBS, Blasticidin S HCl (10 μg/mL) and Hygromycin B (200 μg/mL). The cells are introduced into the wells of a 384-well black clear bottom plate (Costar®) at 10,000 cells/well. GPR139 receptor expression is induced with 2 μg/mL doxycycline (Sigma D9891). The plate is allowed to stand at room temperature for 10-30 minutes and then incubated at 37° C. and 5% CO2 for 17 hours prior to assay.
Culture media is removed from cells and 45 μL of 1× calcium dye (2.5 mM) is added to each well and incubated at 37° C. and 5% CO2 for 40 minutes. The plate is removed from the incubator and allowed to stand at RT for 20 minutes without a plate cover prior to measurement of calcium signaling. The calcium dye is prepared by adding 10 mL of assay buffer (Hank's Balanced Salt Solution (1×), 1 mM HEPES at pH 7.4) to one vial of calcium dye (FLIPR® Calcium 5 Assay Kit; Molecular Devices) at room temperature, vortexing the mixture until homogenous, and transferring the dye to a 250 mL flask using 10 mL of assay, buffer to rinse the vial. The dye is subsequently transferred to a conical flask, which is filled to the 200 mL mark with assay buffer, and 1 mL of […] probenecid solution (142.68 mg/mL in 1M NaOH aq) is added.
Example compounds suspended in DMSO are received from compound management in microtiter plates (0.25 μL/well) and are diluted in assay buffer (25 μL). Following incubation of the cell plate, the Example compounds are added to the cells (11-point dose response, 10 μM maximum concentration) using a FLIPR® Tetra system (Molecular Devices) and fluorescence is measured continuously for 1 minute. EC50 curves are generated with a four-parameter logistic equation using GraphPad Prism® 6, and activation of GPR139 for each example compound is reported as pEC50.

| Structure (SMILES) | EC50 [nM] |
| --- | --- |
| Cn1nc(C2CC2)c2c(=O)n(CC(=O)N3CCCC3c3ccc(Cl)cc3)ncc21 (stereo not drawn) [Example 84, 5-(2-(2-(4-chlorophenyl)pyrrolidin-1-yl)-2-oxoethyl)-3-cyclopropyl-1-methyl-1,5-dihydro-4H-pyrazolo[3,4-d]pyridazin-4-one] | 407 |
| Cc1nn(CC(=O)N[C@@H](C)c2ccc(OC(F)(F)F)cc2)c(=O)c2cnn(C(C)C)c12 [Example 76, (S)-2-(1-isopropyl-7-methyl-4-oxo-1,4-dihydro-5H-pyrazolo[3,4-d]pyridazin-5-yl)-N-(1-(4-(trifluoromethoxy)phenyl)ethyl)acetamide] | 1020 |
| Cc1nn(C2CC2)c2cnn(CC(=O)N[C@@H](C)c3ccc(OC(F)(F)F)cc3)c(=O)c12 [Example 109, (S)-2-(1-cyclopropyl-3-methyl-4-oxo-1,4-dihydro-5H-pyrazolo[3,4-d]pyridazin-5-yl)-N-(1-(4-(trifluoromethoxy)phenyl)ethyl)acetamide] | 282 |
| Cc1ccc([C@H](C)NC(=O)Cn2ncc3c(cnn3C3CC3)c2=O)c(F)c1 [Example 90, (S)-2-(1-cyclopropyl-4-oxo-1,4-dihydro-5H-pyrazolo[3,4-d]pyridazin-5-yl)-N-(1-(2-fluoro-4-methylphenyl)ethyl)acetamide] | 58.9 |
| Cc1ccc([C@H](C)NC(=O)Cn2nc(C)c3c(cnn3C(C)C)c2=O)c(F)c1 [Example 83, (S)—N-(1-(2-fluoro-4-methylphenyl)ethyl)-2-(1-isopropyl-7-methyl-4-oxo-1,4-dihydro-5H-pyrazolo[3,4-d]pyridazin-5-yl)acetamide] | 93.3 |
| Cc1ccc([C@H](C)NC(=O)Cn2ncc3c(c(C)nn3C(C)C)c2=O)cc1 [Example 46, (S)-2-(1-isopropyl-3-methyl-4-oxo-1,4-dihydro-5H-pyrazolo[3,4-d]pyridazin-5-yl)-N-(1-(p-tolyl)ethyl)acetamide] | 77.6 |
| CC(C)n1nc(C2CC2)c2c(=O)n(CC(=O)N[C@@H](C)c3ccc(OC(F)(F)F)cc3)ncc21 [Example 96, (S)-2-(3-cyclopropyl-1-isopropyl-4-oxo-1,4-dihydro-5H-pyrazolo[3,4-d]pyridazin-5-yl)-N-(1-(4-(trifluoromethoxy)phenyl)ethyl)acetamide] | 501 |
| Cc1nn(CC(=O)N[C@@H](C)c2ccc(OC(F)(F)F)cc2)c(=O)c2cnn(C3CC3)c12 [Example 79, (S)-2-(1-cyclopropyl-7-methyl-4-oxo-1,4-dihydro-5/1-pyrazolo[3,4-d]pyridazin-5-yl)-N-(1-(4-(trifluoromethoxy)phenyl)ethyl)acetamide] | 257 |
| Cc1ccc([C@H](C)NC(=O)Cn2ncc3c(cnn3C3CC3)c2=O)cc1 [Example 91, (S)-2-(1-cyclopropyl-4-oxo-1,4-dihydro-5H-pyrazolo[3,4-d]pyridazin-5-yl)-N-(1-(p-tolyl)ethyl)acetamide] | 58.9 |
| CC(C)n1nc(C2CC2)c2c(=O)n(CC(=O)N[C@@H](C)c3ccc(C(F)(F)F)cc3)ncc21 [Example 98, (S)-2-(3-cyclopropyl-1-isopropyl-4-oxo-1,4-dihydro-5H-pyrazolo[3,4-d]pyridazin-5-yl)-N-(1-(4-(trifluoromethyl)phenyl)ethyl)acetamide] | 275 |
| COc1ccc([C@H](C)NC(=O)Cn2nc(C)c3cnn(C(C)(C)C)c3c2=O)cc1 [Example 9, (S)-2-(1-(tert-butyl)-4-methyl-7-oxo-1,7-dihydro-6H-pyrazolo[3,4-d]pyridazin-6-yl)-N-(1-(4-methoxyphenyl)ethyl)acetamide] | 95.5 |
| Cc1ccc([C@H](C)NC(=O)Cn2nc(C)c3c(cnn3C(C)C)c2=O)cc1 [Example 77, (S)-2-(1-isopropyl-7-methyl-4-oxo-1,4-dihydro-5H-pyrazolo[3,4-d]pyridazin-5-yl)-N-(1-(p-tolyl)ethyl)acetamide] | 91.2 |
| CC(C)n1ncc2c(=O)n(CC(=O)N[C@@H](C)c3ccc(OC(F)(F)F)cc3)ncc21 [Example 87, (S)-2-(1-isopropyl-4-oxo-1,4-dihydro-5H-pyrazolo[3,4-d]pyridazin-5-yl)-N-(1-(4-(trifluoromethoxy)phenyl)ethyl)acetamide] | 126 |
| Cc1nn(CC(=O)N[C@@H](C)c2ccc(C(F)(F)F)cc2)c(=O)c2cnn(C3CC3)c12 [Example 78, (S)-2-(1-cyclopropyl-7-methyl-4-oxo-1,4-dihydro-5H-pyrazolo[3,4-d]pyridazin-5-yl)-N-(1-(4-(trifluoromethyl)phenyl)ethyl)acetamide] | 79.4 |
| Cc1nn(C(C)C)c2c(C)nn(CC(=O)N[C@@H](C)c3ccc(OC(F)(F)F)cc3)c(=O)c12 [Example 100, (S)-2-(1-isopropyl-3,7-dimethyl-4-oxo-1,4-dihydro-5H-pyrazolo[3,4-d]pyridazin-5-yl)-N-(1-(4-(trifluoromethoxy)phenyl)ethyl)acetamide] | 363 |
| Cc1ccc([C@H](C)NC(=O)Cn2ncc3c(c(C4CC4)nn3C(C)C)c2=O)c(F)c1 [Example 95, (S)-2-(3-cyclopropyl-1-isopropyl-4-oxo-1,4-dihydro-5H-pyrazolo[3,4-d]pyridazin-5-yl)-N-(1-(2-fluoro-4-methylphenyl)ethyl)acetamide] | 117 |
| Cc1ccc([C@H](C)NC(=O)Cn2ncc3c(c(C4CC4)nn3C(C)C)c2=O)cc1 [Example 97, (S)-2-(3-cyclopropyl-1-isopropyl-4-oxo-1,4-dihydro-5H-pyrazolo[3,4-d]pyridazin-5-yl)-N-(1-(p-tolyl)ethyl)acetamide] | 49 |
| CC(C)n1ncc2c(=O)n(CC(=O)N[C@@H](C)c3ccc(C(F)(F)F)cc3)ncc21 [Example 86, (S)-2-(1-isopropyl-4-oxo-1,4-dihydro-5H-pyrazolo[3,4-d]pyridazin-5-yl)-N-(1-(4-(trifluoromethyl)phenyl)ethyl)acetamide] | 83.2 |
